Results on 29 compounds are retold here after US8895585B2, “Nicotinamide derivative or salt thereof” (FUJIFILM Corporation, priority 2010, dated 2014).

The subject of assay [1] is THP-1 cells. The assay can be described thus: TNFα generation assay. In kind it is cell-based, human. In short, it runs like this: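 THP-1 cells differentiated to macrophage-like cells with 10 ng/ml IFN-γ for 2 days, preincubated with compound 30 min at room temperature, then cultured 7 h on plates coated with human IgG (10 μg/ml). Secreted TNFα measured by ELISA or AlphaLISA.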

Assay [2] addresses T1, glutathione S-transferase (GST)-fused full-length human Syk protein (Homo sapiens, UniProt P43405).
T1 construct: (GST)-fused full-length human Syk protein; GST (glutathione S-transferase); purchased Carna Biosciences
The experiment in a line: Syk enzyme assay. It is filed as biochemical. In a few lines: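 GST-tagged full-length human Syk (baculovirus) preincubated with compound 15 min at room temperature (pH 7.0, 10 mM MgCl2), then reacted 40 min with 0.4 μM biotinylated peptide substrate and 27 μM ATP (final). Phosphorylation read by HTRF (615/665 nm) after EDTA stop; IC50 reported.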

[3] abbreviates: Homo sapiens, THP-1, THP-1 cells, Table 22, read-out: IC50 in TNFα generation assay.
The mark [4] stands for this setting: Syk enzyme assay, Test Example 1, read-out: IC50 of Syk-inhibitory activity.

Counter-ions that a name gives are not always drawn. Like-named read-outs stand apart in the source and are kept apart here.

Regarding `NC(=O)c1cc(F)c(NC2CCCCC2N)nc1Nc1cncc(NC(=O)c2ccco2)c1` (stereo not shown) [Example 027-033], the IC50 in assay [1] (setting [3]) was 130 to 200 nM; in assay [2] (setting [4]), less than 10 nM.
The like results for `CCC[C@@H](Nc1nc(Nc2cncc(-c3cccc(OC)c3)c2)c(C(N)=O)cc1F)[C@H](C)N` [Example 006-284, 6-(((2S,3R)-2-aminohexan-3-yl)amino)-5-fluoro-2-((5-(3-methoxyphenyl)pyridin-3-yl)amino)nicotinamide] were, in that order, 130 to 200 nM and less than 10 nM.
The corresponding values for `NC(=O)c1cc(F)c(N[C@@H]2CCCC[C@@H]2N)nc1Nc1ccc2nc(OCCN3CCOC3=O)ccc2c1` (relative stereo) [Example 004-201, 6-(cis-2-aminocyclohexylamino)-5-fluoro-2-((2-(2-(2-oxooxazolidin-3-yl)ethoxy)quinolin-6-yl)amino)nicotinamide] are 130 to 200 nM and less than 10 nM.
For `NC(=O)c1cc(F)c(N[C@@H]2CCCC[C@@H]2N)nc1Nc1cncc(N2CCCC2)c1` (relative stereo) [Example 004-049], the IC50 is 130 to 200 nM in assay [1] (setting [3]) and less than 10 nM in assay [2] (setting [4]).
With `C[C@H](N)[C@@H](C)Nc1nc(Nc2cncc(-n3cccn3)c2)c(C(N)=O)cc1F` (racemic) [Example 006-192, 2-((5-(1H-pyrazol-1-yl)pyridin-3-yl)amino)-6-(((2R,3S)-3-aminobutan-2-yl)amino)-5-fluoronicotinamide 2-((5-(1H-pyrazol-1-yl)pyridin-3-yl)amino)-6-(((2S,3R)-3-aminobutan-2-yl)amino)-5-fluoronicotinamide], the IC50 in assay [1] (setting [3]) was 65 to 130 nM; in assay [2] (setting [4]) it was 10 to 50 nM.
The corresponding values for `CC[C@H](N)[C@@H](CC)Nc1nc(Nc2cncc(C3CC3)c2)c(C(N)=O)cc1F` [Example 006-378, 6-(((3R,4S)-4-aminohexan-3-yl)amino)-2-((5-cyclopropylpyridin-3-yl)amino)-5-fluoronicotinamide] are 65 to 130 nM and less than 10 nM.
As to `NC(=O)c1cc(F)c(N[C@@H]2CCCC[C@@H]2N)nc1Nc1cnc2c(c1)OCCO2` (relative stereo) [Example 004-161, 6-(cis-2-aminocyclohexylamino)-2-((2,3-dihydro-[1,4]dioxino[2,3-b]pyridin-7-yl)amino)-5-fluoronicotinamide], the IC50 in assay [1] (setting [3]) lay within 130 to 200 nM; in assay [2] (setting [4]), 10 to 50 nM.
Regarding `NC(=O)c1cc(F)c(N[C@@H]2CCCC[C@@H]2N)nc1Nc1cncc(-c2ccc(N)cc2)c1` (relative stereo) [Example 004-218, 6-(cis-2-aminocyclohexylamino)-2-((5-(4-aminophenyl)pyridin-3-yl)amino)-5-fluoronicotinamide], the IC50 in assay [1] (setting [3]) is 65 to 130 nM; in assay [2] (setting [4]), less than 10 nM.
On to `Cn1nc(F)c2cc(Nc3nc(NC4CCCCC4N)c(F)cc3C(N)=O)ccc21` (stereo not shown) [Example 002-196], for which the IC50 in assay [1] (setting [3]) is 65 to 130 nM; in assay [2] (setting [4]), less than 10 nM.
The like results for `CC[C@@H](Nc1nc(Nc2cccc3c2cnn3CC)c(C(N)=O)cc1F)[C@H](C)N` [Example 006-523, 6-(((2S,3R)-2-aminopentan-3-yl)amino)-2-((1-ethyl-1H-indazol-4-yl)amino)-5-fluoronicotinamide] were, in that order, less than 65 nM and less than 10 nM.
As for `COc1ccc2cc(Nc3nc(N[C@H](CC(C)C)[C@H](C)N)c(F)cc3C(N)=O)cnc2c1` [Example 006-206, 6-(((2S,3R)-2-amino-5-methylhexan-3-yl)amino)-5-fluoro-2-((7-methoxyquinolin-3-yl)amino)nicotinamide], the IC50 is 130 to 200 nM in assay [1] (setting [3]) and less than 10 nM in assay [2] (setting [4]).
Consider `NC(=O)c1cc(F)c(N[C@@H]2CCCC[C@@H]2N)nc1Nc1cccc2c1cnn2C1CC1` [Example 006-474, 6-(((1R,2S)-2-aminocyclohexyl)amino)-2-((1-cyclopropyl-1H-indazol-4-yl)amino)-5-fluoronicotinamide], for which the IC50 in assay [1] (setting [3]) is 65 to 130 nM; in assay [2] (setting [4]), less than 10 nM.
Consider `CCC[C@@H](Nc1nc(Nc2cncc(-c3cccc(OC)c3F)c2)c(C(N)=O)cc1F)[C@H](C)N` [Example 006-286, 6-(((2S,3R)-2-aminohexan-3-yl)amino)-5-fluoro-2-((5-(2-fluoro-3-methoxyphenyl)pyridin-3-yl)amino)nicotinamide], for which the IC50 in assay [1] (setting [3]) was less than 65 nM; in assay [2] (setting [4]), less than 10 nM.
On to `NC(=O)c1cc(F)c(NC2CCCCC2N)nc1Nc1cncc(-c2ccc3cccnc3c2)c1` (stereo not shown) [Example 002-189], for which the IC50 was 65 to 130 nM in assay [1] (setting [3]) and less than 10 nM in assay [2] (setting [4]).
The like results for `NC(=O)c1cc(F)c(NC2CCCCC2N)nc1Nc1cncc(-c2ccc3ccncc3c2)c1` (stereo not shown) [Example 002-191] were, in that order, 65 to 130 nM and less than 10 nM.
The like results for `CCOc1ncc(Nc2nc(N[C@@H]3CCCC[C@@H]3N)c(F)cc2C(N)=O)cc1N1CCOCC1` [Example 006-565, 6-(((1R,2S)-2-aminocyclohexyl)amino)-2-((6-ethoxy-5-morpholinopyridin-3-yl)amino)-5-fluoronicotinamide] were, in that order, 65 to 130 nM and 100 to 1000 nM.
For `CC(C)C[C@H](CN)Nc1nc(Nc2ccc3scnc3c2)c(C(N)=O)cc1F` [Example 006-147, (R)-6-((1-amino-4-methylpentan-2-yl)amino)-2-(benzo[d]thiazol-5-ylamino)-5-fluoronicotinamide], the IC50 in assay [1] (setting [3]) was 130 to 200 nM; in assay [2] (setting [4]) it was less than 10 nM.
The like results for `CC[C@@H](Nc1nc(Nc2ccc3c(cnn3CCF)c2)c(C(N)=O)cc1F)[C@H](C)N` [Example 006-416, 6-(((2S,3R)-2-aminopentan-3-yl)amino)-5-fluoro-2-((1-(2-fluoroethyl)-1H-indazol-5-yl)amino)nicotinamide] were, in that order, 65 to 130 nM and less than 10 nM.
The corresponding values for `Cc1cc(Nc2nc(N[C@H](CC3CC3)[C@H](C)N)c(F)cc2C(N)=O)cnc1C` [Example 006-435, 6-(((2R,3S)-3-amino-1-cyclopropylbutan-2-yl)amino)-2-((5,6-dimethylpyridin-3-yl)amino)-5-fluoronicotinamide] are 65 to 130 nM and less than 10 nM.
The like results for `C[C@H](N)[C@@H](C)Nc1nc(Nc2cccc(-n3nccn3)c2)c(C(N)=O)cc1F` (racemic) [Example 006-111, 2-((3-(2H-1,2,3-triazol-2-yl)phenyl)amino)-6-(((2R,3S)-3-aminobutan-2-yl)amino)-5-fluoronicotinamide 2-((3-(2H-1,2,3-triazol-2-yl)phenyl)amino)-6-(((2S,3R)-3-aminobutan-2-yl)amino)-5-fluoronicotinamide] were, in that order, 65 to 130 nM and less than 10 nM.
Consider `CC[C@@H](Nc1nc(Nc2cnc3cc(OC)ccc3c2)c(C(N)=O)cc1F)[C@H](C)N` [Example 006-190, 6-(((2S,3R)-2-aminopentan-3-yl)amino)-5-fluoro-2-((7-methoxyquinolin-3-yl)amino)nicotinamide], for which the IC50 in assay [1] (setting [3]) was less than 65 nM; in assay [2] (setting [4]), less than 10 nM.
With `Cc1cc(Nc2nc(N[C@@H]3CCCC[C@@H]3N)c(F)cc2C(N)=O)cnc1-n1nccn1` [Example 006-500, 6-(((1R,2S)-2-aminocyclohexyl)amino)-5-fluoro-2-((5-methyl-6-(2H-1,2,3-triazol-2-yl)pyridin-3-yl)amino)nicotinamide], the results for the IC50 in assay [1] (setting [3]) and in assay [2] (setting [4]) were 65 to 130 nM and 10 to 50 nM, respectively.
The corresponding values for `CCC[C@@H](Nc1nc(Nc2ccc3ncccc3c2)c(C(N)=O)cc1F)[C@H](C)N` [Example 006-207, 6-(((2S,3R)-2-aminohexan-3-yl)amino)-5-fluoro-2-((quinolin-6-yl)amino)nicotinamide] are less than 65 nM and less than 10 nM.
The corresponding values for `CCC[C@@H](Nc1nc(Nc2ccnc(-c3ccccc3F)c2)c(C(N)=O)cc1F)[C@H](C)N` [Example 006-333, 6-(((2S,3R)-2-aminohexan-3-yl)amino)-5-fluoro-2-((2-(2-fluorophenyl)pyridin-4-yl)amino)nicotinamide] are 65 to 130 nM and less than 10 nM.
Consider `C[C@H](N)[C@@H](C)Nc1nc(Nc2cccc3ncccc23)c(C(N)=O)cc1F` [Example 006-110], for which the IC50 was 65 to 130 nM in assay [1] (THP-1 cells, Table 22, read-out: IC50 in TNFα generation assay) and less than 10 nM in assay [2] (setting [4]).
For the compound `CC[C@@H](Nc1nc(Nc2ccnc(OC)c2)c(C(N)=O)cc1F)[C@H](C)N` [Example 006-266, 6-(((2S,3R)-2-aminopentan-3-yl)amino)-5-fluoro-2-((2-methoxypyridin-4-yl)amino)nicotinamide], the values for the IC50 in assay [1] (setting [3]) and in assay [2] (setting [4]) were less than 65 nM and less than 10 nM, respectively.
On to `Cc1cncc(Nc2nc(N[C@@H]3CCCC[C@@H]3N)c(Cl)cc2C(N)=O)c1` (relative stereo) [Example 34, 6-(cis-2-aminocyclohexylamino)-5-chloro-2-(5-methylpyridin-3-ylamino)nicotinamide•hydrochloride], for which the IC50 in assay [1] (Homo sapiens, THP-1, 7 h, IFN-γ-differentiated THP-1 cells on human IgG-coated plate, cultured 7 hours, read-out: TNFα generation inhibitory activity (IC50)) was no more than 200 nM; in assay [2] (read-out: Syk-inhibitory activity (IC50)) it was no more than 1000 nM.
Consider `COc1cc(Nc2nc(N[C@H](C)CN)c(F)cc2C(N)=O)cc(OC)c1` [Example 006-100, (R)-6-((1-aminopopan-2-yl)amino)-2-((3,5-dimethoxyphenyl)amino)-5-fluoronicotinamide], for which the IC50 is 65 to 130 nM in assay [1] (setting [3]) and less than 10 nM in assay [2] (setting [4]).
The corresponding values for `CCOc1ncc(Nc2nc(N[C@@H]3CCCC[C@@H]3N)c(F)cc2C(N)=O)cc1-n1cccn1` [Example 006-494, 6-(((1R,2S)-2-aminocyclohexyl)amino)-2-((6-ethoxy-5-(1H-pyrazol-1-yl)pyridin-3-yl)amino)-5-fluoronicotinamide] are 130 to 200 nM and 10 to 50 nM.
